Read-outs that look alike come from different tables or passages of the source.
What was measured:
[1] = volume weighted average
Protocol: The prodrug, co-lipid and stabilizer polymers (typically on a 1:1:2 w/w basis) were dissolved in ethanol/THF (4:1) at a concentration of 40 mg/ml. The solvent was rapidly diluted with water using a four port CVIJ mixer^13, 14 with flow rates set at […] (solvent/water/water/water). Flow rates were controlled using Harvard Apparatus PHD2000 syringe pumps. The resultant solution was then dialyzed against water to remove residual solvent. […] When higher concentrations were required the dialyzed solution was diluted with equi-volumes of 600 mM sucrose and then concentrated using a 100 kD, 0.5 mm lumen, 60 cm path length MidGee hoop cartridge (GE Healthcare Life Sciences, Piscataway, N.J.) with a peristaltic pump. Particle size was determined using a Malvern Zetasizer Nano-ZS particle sizer and reported as volume weighted data.
Formulations were composed of a prodrug, a co-lipid and an amphipathic stabilizer in a weight ratio of 1:1:2, respectively at a concentration of 40 mg per mL of solvent. […] Poly(ethylene glycol)-b-polystyrene (2kPS3k or 2.5kPS3k) was used as the amphipathic stabilizer. Other stabilizers may also be used.

[2] = vortexing 30 seconds
Protocol: The physical stability of formulations was investigated by examining changes in particle size after vortexing prodrug/co-lipid/2.5kPS3k (1:1:2) nanoparticles in water, 150 mM saline or 300 mM sucrose (Table 1). […] The increase in particle size was monitored by using dynamic light scattering to measure the Z average (the intensity weighted mean size of the particle distribution) value for samples before and after vigorous vortexing. The change in the Zave value was used as surrogate readout for the formation of aggregates or precipitates resulting from mechanical instability, where a higher value for ΔZave indicated a higher level of aggregation or precipitation (Table 1).

[3] = system: MCF-7 human tumor cell line; conditions: read-out: IC50 values MCF-7; prodrug/POPC/2kPS3k (1:1:2) formulations; 72 hours; MTT; ± SD
[4] = system: A2780 human tumor cell line; assay: MTT growth inhibition, A2780 cells, 72 hours; conditions: read-out: IC50 values A2780, prodrug/POPC/2kPS3k (1:1:2) formulations, ± SD
[5] = system: HT29 human colon carcinoma cells; conditions: Q4Dx6, nanoparticle formulations; for treatment induced delay in reaching a mean tumor size of 500 mm^3: HT29 model, 36 μmol/kg; for therapeutic activity in HT29 model: 34 μmol/kg dose
Protocol: Female athymic nude mice (7-8 weeks old) were inoculated subcutaneously with 100 μl HT29 human colon carcinoma cells (2×10^6 cells) using a 26 gauge needle. Mice were randomly grouped (n=6/group) with a mean tumor size between 80 and 120 mg prior to first treatment. […] Subsequent injections were made according to the designated schedule. Tumor length and width measurements, body weight and in life observations were recorded 2-3 times per week. Tumor weight was calculated according to the formula (L×W^2)/2.
The relative efficacies of nanoparticle formulations of 1, 2, 4, 5, 6 and 7 were determined in the HT29 model using a 36 μmol/kg dose on a Q4Dx6 schedule (FIG. 3). Saline was used as a negative control.
The activity of 7 in POPC/2.5kPS3k nanoparticle formulations relative to paclitaxel was determined by comparing the efficacy of doses ranging from 0.25 to 3 mole equivalents of paclitaxel (FIG. 4) in the HT29 tumor model. Taxol® dosed at 23 μmol/kg on a Q2Dx5 schedule was used as a positive control.
The tumor growth data was analyzed by two methods to determine what dose of 7 would be equivalent to the Taxol® positive control.

[6] = system: MCF-7 breast carcinoma cell line; conditions: literature reference 7; cited from earlier work
[7] = mouse, in vivo
Protocol: Athymic nude mice (n=3/timepoint) were injected iv with test samples (10 μl/g body weight, to a maximum of 250 μl). Blood was collected at the designated time point by cardiac puncture and placed into EDTA coated microtainer tubes (BD Biosciences). The tubes were centrifuged at 2800 rpm for 10 minutes. Plasma was recovered and 50 μl aliquots analyzed by HPLC for drug content. Samples containing ^3H—CHE (50 μl) were diluted with PicoFluor40™ scintillation fluid (Packard) and counted on a Beckman-Coulter LS 6500 Multipurpose scintillation counter. The total drug (counts) per mouse in the blood compartment was calculated assuming a plasma volume of 0.04125 mL per gram of body weight.
Elimination studies tracking both the prodrug and the particle were conducted to obtain a more accurate description of the partitioning behavior of the prodrugs in vivo (FIG. 1). Prodrug elimination was followed by HPLC, while particle elimination rates were determined by labeling nanoparticles with tritiated cholesterylhexadecyl ether (3H—CHE).
Formulations comprised of 1/VES/2kPS3k (1:1:2) and 2/VES/2kPS3k (1:1:2) were labeled with trace amounts of ^3H—CHE and plasma levels of both the label and prodrug were monitored in Foxn1^nu mice (FIG. 1, Panel A).
Effect of prodrug partitioning on plasma drug elimination was determined. The prodrug panel was screened using prodrug/POPC/2kPS3k (1:1:2) nanoparticles in Foxn1^nu mice to determine elimination rates for the different prodrug conjugates (FIG. 2). […] Conjugates were formulated at a concentration of 0.7 mg/mL.
In order to estimate the partitioning half-life for each prodrug, it was assumed that 1 tracked the particle elimination rate based on the results discussed above. The elimination of all other prodrugs were then fitted to four parameter double exponential decay curves and normalized against 1.

[8] = unbuffered processed plasma sample
Description: Methanol:acetonitrile 1:4 (v:v) was effective in near complete precipitation of plasma proteins and liberation of the prodrug from the nanoparticle.

[9] = prodrug/POPC/2.5kPS3k (1:1:2) nanoparticles in water
[10] = co-lipid POPC, prodrug/co-lipid/2.5kPS3k (1:1:2)

Row | Compound | Diameter [1, 9] [nm] | ΔZave 150 mM saline [2, 10] [nm] | ΔZave 300 mM sucrose [2, 10] [nm] | ΔZave water [2, 10] [nm] | IC50 [3] [nM] | IC50 [4] [nM] | partitioning half life [7] | also measured
1 | CCCCCCCC/C=C\CCCCCCCCOC(=O)COCC(=O)O[C@@H](C(=O)O[C@H]1C[C@@]2(O)[C@@H](OC(=O)c3ccccc3)[C@@H]3[C@]4(OC(C)=O)CO[C@@H]4C[C@H](O)[C@@]3(C)C(=O)[C@H](OC(C)=O)C(=C1C)C2(C)C)[C@@H](NC(=O)c1ccccc1)c1ccccc1 [Prodrug 4, 2′-O-(5″-O-oleyldiglycoloyl)-paclitaxel] | 22 | 25 | 5 | 15 | 15.9 ± 0.7 | 28.4 | – | treatment induced delay in reaching a mean tumor size of 500 mm^3 [5]: 3 days
2 | 2′-O-(4″-O-tocopherylsuccinoyl)-paclitaxel [Prodrug 1] | – | – | – | – | 158 ± 72 | 192 | – | therapeutic activity in HT29 model [5]: no evidence of any therapeutic activity
3 | CC(=O)O[C@H]1C(=O)[C@@]2(C)[C@H]([C@H](OC(=O)c3ccccc3)[C@]3(O)C[C@H](OC(=O)[C@H](O)[C@@H](NC(=O)c4ccccc4)c4ccccc4)C(C)=C1C3(C)C)[C@]1(OC(C)=O)CO[C@@H]1C[C@@H]2O [Paclitaxel] | – | – | – | – | – | – | – | IC50 [6]: < 1 nM
4 | CCCCCCCCCCCCCCC(Br)C(=O)O[C@@H](C(=O)O[C@H]1C[C@@]2(O)[C@@H](OC(=O)c3ccccc3)[C@@H]3[C@]4(OC(C)=O)CO[C@@H]4C[C@H](O)[C@@]3(C)C(=O)[C@H](OC(C)=O)C(=C1C)C2(C)C)[C@@H](NC(=O)c1ccccc1)c1ccccc1 (stereo partly shown) [2′-(2″-bromohexadecanoyl)paclitaxel] | – | – | – | – | – | – | – | IC50 [6]: 70 nM
5 | CC(=O)O[C@H]1C(=O)[C@@]2(C)[C@H]([C@H](OC(=O)c3ccccc3)[C@]3(O)C[C@H](OC(=O)[C@H](OC(=O)COCC(=O)O[C@H]4CC[C@@]5(C)C(=CC[C@H]6[C@@H]7CC[C@H]([C@H](C)CCCC(C)C)[C@@]7(C)CC[C@@H]65)C4)[C@@H](NC(=O)c4ccccc4)c4ccccc4)C(C)=C1C3(C)C)[C@]1(OC(C)=O)CO[C@@H]1C[C@@H]2O [Prodrug 8, 2′-O-(5″-O-cholesteryldiglycoloyl)-paclitaxel] | 23 | 42 | 41 | 47 | 24.1 ± 0.6 | 27 ± 1.1 | approximately 21 h | –
6 | CCCCCCCCCCCCCCCCCCOC(=O)COCC(=O)O[C@@H](C(=O)O[C@H]1C[C@@]2(O)[C@@H](OC(=O)c3ccccc3)[C@@H]3[C@]4(OC(C)=O)CO[C@@H]4C[C@H](O)[C@@]3(C)C(=O)[C@H](OC(C)=O)C(=C1C)C2(C)C)[C@@H](NC(=O)c1ccccc1)c1ccccc1 [Prodrug 5, 2′-O-(5″-O-octadecyldiglycoloyl)-paclitaxel] | 21 | 24 | 7 | 20 | 1.1 ± 1.5 | 20.9 ± 10.9 | 1.7 h | Diameter ([1]; no co-lipid, prodrug/2.5kPS3k nanoparticles in water): 28 nm; Diameter ([1]; prodrug/VES/2.5kPS3k (1:1:2) nanoparticles in water): 7 nm; ΔZave 150 mM saline ([2]; co-lipid VES, 2.5kPS3k): 372 nm; ΔZave 300 mM sucrose ([2]; co-lipid VES, 2.5kPS3k): 10 nm; ΔZave water ([2]; co-lipid VES, 2.5kPS3k): 3 nm; ΔZave 150 mM saline ([2]; no co-lipid, 2.5kPS3k): 774 nm; ΔZave 300 mM sucrose ([2]; no co-lipid, 2.5kPS3k): 71 nm; ΔZave water ([2]; no co-lipid, 2.5kPS3k): 109 nm; treatment induced delay in reaching a mean tumor size of 500 mm^3 [5]: 4 days
7 | CCCCCCCCCCCCCC(=O)OC[C@H](COC(=O)COCC(=O)O[C@@H](C(=O)O[C@H]1C[C@@]2(O)[C@@H](OC(=O)c3ccccc3)[C@@H]3[C@]4(OC(C)=O)CO[C@@H]4C[C@H](O)[C@@]3(C)C(=O)[C@H](OC(C)=O)C(=C1C)C2(C)C)[C@@H](NC(=O)c1ccccc1)c1ccccc1)OC(=O)CCCCCCCCCCCCC [Prodrug 9, 2′-O-(5″-O-(1′″,2′″-dimyristoyl-sn-glycero)diglycoloyl)-paclitaxel] | 23 | 171 | 0 | 167 | 32.2 ± 1.3 | 34.7 ± 1.3 | 8.5 h | –
8 | CCCCCCCCCCCCCCCCCCCCOC(=O)COCC(=O)O[C@@H](C(=O)O[C@H]1C[C@@]2(O)[C@@H](OC(=O)c3ccccc3)[C@@H]3[C@]4(OC(C)=O)CO[C@@H]4C[C@H](O)[C@@]3(C)C(=O)[C@H](OC(C)=O)C(=C1C)C2(C)C)[C@@H](NC(=O)c1ccccc1)c1ccccc1 [Prodrug 6, 2′-O-(5″-O-cosanyldiglycoloyl)-paclitaxel] | 23 | 26 | 36 | 21 | 16.6 ± 4.5 | 29 ± 1.3 | ~6.5 h | treatment induced delay in reaching a mean tumor size of 500 mm^3 [5]: 15 days; hydrolysis of prodrug after processing plasma samples ([8]; after 9 hours): completely hydrolyzed
9 | CCCCCCCCCCCCCCCC(=O)OC(C(=O)OC1CC2(O)C(OC(=O)c3ccccc3)C3C4(OC(C)=O)COC4CC(O)C3(C)C(=O)C(OC(C)=O)C(=C1C)C2(C)C)C(NC(=O)c1ccccc1)c1ccccc1 (stereo not shown) [2′-O-hexadecanoylpaclitaxel] | – | – | – | – | – | – | – | IC50 [6]: 8600 nM
10 | CC(=O)OC1C(=O)C2(C)C(O)CC3OCC3(OC(C)=O)C2C(OC(=O)c2ccccc2)C2(O)CC(OC(=O)C(OC(=O)COCC(=O)Oc3c(C)c(C)c4c(c3C)CCC(C)(CCCC(C)CCCC(C)CCCC(C)C)O4)C(NC(=O)c3ccccc3)c3ccccc3)C(C)=C1C2(C)C (stereo not shown) [Prodrug 3, 2′-O-(5″-O-tocopheryldiglycoloyl)-paclitaxel] | 24 | 55 | – | 125 | 13.4 ± 2.4 | 25.3 | approximately 13 h | –
11 | CCCCCCCC/C=C\CCCCCCCCOC(=O)CCC(=O)O[C@@H](C(=O)O[C@H]1C[C@@]2(O)[C@@H](OC(=O)c3ccccc3)[C@@H]3[C@]4(OC(C)=O)CO[C@@H]4C[C@H](O)[C@@]3(C)C(=O)[C@H](OC(C)=O)C(=C1C)C2(C)C)[C@@H](NC(=O)c1ccccc1)c1ccccc1 [Prodrug 2, 2′-O-(4″-O-oleylsuccinoyl)-paclitaxel] | 26 | 43 | 10 | 20 | 67 ± 5.9 | 75.1 | – | prodrug plasma clearance compared with 3H-CHE label ([7]; iv): cleared significantly faster; therapeutic activity in HT29 model [5]: no evidence of any therapeutic activity; prodrug remaining after processing plasma samples ([8]; after 68 hours): approximately 25%

— patent publication US8486924B2, “Taxane delivery system” (Celator Pharmaceuticals, Inc., priority 2007, dated 2013)
